From patent publication US5047418A, “Method of stimulating histamine H3 -receptors” (Smith Kline & French Laboratories Limited, priority 1989, dated 1991)

Key:
histamine H1 -receptor [1] = molecular target: T1, histamine H1 -receptor (Cavia porcellus, UniProt P31389); assay: Histamine H1-antagonist activity on guinea-pig ileum
Method: (§1) The activity of the compounds of the formula (1) at the histamine H1 - or H2 -receptor was assessed substantially as described by Parsons et al., Agents and Actions, 1976, 7(1), 31.
On the guinea-pig ileum the compound of the formula (1) wherein X is CH2 had no histamine H1 -antagonist activity up to 10^-5 M.

histamine H1 -receptor [2] = molecular target: T1, histamine H1 -receptor; assay: Histamine H1-agonist activity on guinea-pig ileum
Method: as §1

histamine H2 -receptor [3] = molecular target: T2, histamine H2 -receptor (Cavia porcellus, UniProt P47747); assay: Histamine H2-antagonist activity on guinea-pig atrium; conditions: read-out: pA2 (histamine H2 -antagonist activity) (converted)
T2 construct: On the guinea-pig atrium; from tissue; host or cells: guinea-pig atrium (isolated tissue)

histamine H2 -receptor [4] = molecular target: T2, histamine H2 -receptor; assay: Histamine H2-agonist activity on guinea-pig atrium
Method: as §1

histamine H3 -receptor = molecular target: T3, histamine H3 -receptor (Cavia porcellus, UniProt Q9JI35); assay: Inhibition of electrically evoked twitch responses of guinea-pig ileum (histamine H3-agonist activity); conditions: read-out: EC50 (concentration of compound which caused 50% inhibition of the twitch response)
T3 construct: twitch responses of the guinea-pig ileum; from tissue; host or cells: guinea-pig ileum (isolated, electrically stimulated, organ bath)
Method: Inhibition of the electrically evoked twitch responses of the guinea-pig ileum by histamine H3 -receptor agonists was studied by addition of graded concentrations of the compound (in volumes of 25 μl or 79 μl) to the organ bath in a sequential manner. Each concentration of agonist was washed out of the bath when the response had reached equilibrium. A four minute period was allowed between each addition of the compound.

T2 sequence (P47747 whole entry): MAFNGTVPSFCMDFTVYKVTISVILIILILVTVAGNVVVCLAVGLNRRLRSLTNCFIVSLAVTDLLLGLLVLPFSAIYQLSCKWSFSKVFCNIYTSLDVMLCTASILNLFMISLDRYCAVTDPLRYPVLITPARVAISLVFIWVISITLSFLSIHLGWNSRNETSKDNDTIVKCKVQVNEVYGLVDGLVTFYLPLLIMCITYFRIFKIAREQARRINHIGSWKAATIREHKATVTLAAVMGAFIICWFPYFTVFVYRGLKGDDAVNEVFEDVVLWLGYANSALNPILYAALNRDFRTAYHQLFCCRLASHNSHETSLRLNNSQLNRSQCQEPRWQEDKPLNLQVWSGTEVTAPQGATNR
T1 sequence (P31389 whole entry): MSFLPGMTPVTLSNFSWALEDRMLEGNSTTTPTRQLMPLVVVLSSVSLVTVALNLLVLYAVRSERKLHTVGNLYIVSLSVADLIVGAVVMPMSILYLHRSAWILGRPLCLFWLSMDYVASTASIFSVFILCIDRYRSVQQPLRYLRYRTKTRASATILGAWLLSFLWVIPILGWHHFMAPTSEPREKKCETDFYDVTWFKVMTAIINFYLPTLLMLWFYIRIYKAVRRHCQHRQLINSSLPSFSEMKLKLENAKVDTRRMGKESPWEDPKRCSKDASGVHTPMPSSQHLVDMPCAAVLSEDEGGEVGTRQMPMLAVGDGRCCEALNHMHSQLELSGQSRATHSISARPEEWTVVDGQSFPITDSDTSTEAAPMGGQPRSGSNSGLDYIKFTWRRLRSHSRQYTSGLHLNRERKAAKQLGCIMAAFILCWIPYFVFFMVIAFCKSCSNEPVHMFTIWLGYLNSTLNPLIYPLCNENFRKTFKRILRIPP
T3 sequence (Q9JI35 whole entry): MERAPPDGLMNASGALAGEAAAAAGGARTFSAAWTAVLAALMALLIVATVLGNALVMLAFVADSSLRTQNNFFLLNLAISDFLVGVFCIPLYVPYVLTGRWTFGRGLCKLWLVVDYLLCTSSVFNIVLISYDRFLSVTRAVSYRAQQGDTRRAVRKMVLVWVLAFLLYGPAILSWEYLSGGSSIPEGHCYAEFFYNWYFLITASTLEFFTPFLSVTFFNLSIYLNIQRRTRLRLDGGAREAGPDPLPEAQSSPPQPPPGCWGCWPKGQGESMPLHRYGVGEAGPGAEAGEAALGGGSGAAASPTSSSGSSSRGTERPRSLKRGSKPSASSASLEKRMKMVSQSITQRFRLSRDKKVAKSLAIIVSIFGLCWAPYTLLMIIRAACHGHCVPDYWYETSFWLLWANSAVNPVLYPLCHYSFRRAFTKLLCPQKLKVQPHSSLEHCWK

How did the “concentration at which histamine H1 -antagonist activity is demonstrated” value (histamine H1 -receptor [1]) turn out when `N=C(N)CCCc1c[nH]cn1` [X = CH2, 4-(4(5)-imidazolyl)butyramidine] was run?
Its value is > 10^-5 M.

And the “concentration at which histamine H1 -agonist activity is demonstrated” value (histamine H1 -receptor [2])?
Its value is > 10^-5 M.

And the Kb (histamine H2 -receptor [3])?
The Kb was roughly 251 µM.

What about the “concentration at which histamine H2 -agonist activity is demonstrated” value (histamine H2 -receptor [4]) of the same molecule?
The value was > 10^-5 M.

And the EC50 (histamine H3 -receptor)?
The EC50 was 0.0011 µM.

`N=C(N)SCCc1c[nH]cn1` [X = S, S-[2-(4(5)-imidazolyl)ethyl]isothiourea] was tested. Which “concentration at which histamine H1 -agonist activity is demonstrated” value (histamine H1 -receptor [2]) did it give?
Its value is 10^-4 to 10^-3 M.

What about the Kb (histamine H2 -receptor [3]) of the same molecule?
Its Kb is 79.4 µM.

What about the EC50 (histamine H3 -receptor) of the same molecule?
The EC50 was 0.0046 µM.
